This is an account of results in patent EP1897937A1, “Method of culturing NPCs” (NeuroProgen GmbH Leipzig, priority 2006, dated 2008).

Common to all, as to type: cell-based, human
The test system of assay [1] is hmNPCs. Nature of the assay: Cell death / cell cycle assay (propidium iodide, FACS). Particulars: for Sub-G1 / G0/G1 / G2/M / S: 48 h, 100 µM nucleotides, pretreated 30 minutes with 10 µM suramin or 100 µM PPADS where named; for G0/G1 / G2/M / S: mean ± SEM, n = 3. The protocol:
Untreated (control) and treated exponentially growing […] were prepared for cell cycle analysis by lysing cells in 300 μl of hypotonic lysis buffer (0.1% sodium citrate, 0.1% Triton X-100, and 50 μg/ml propidium iodide [PI]). […] Histograms of DNA content were acquired using the CellQuest software. […] For data analysis and correction of the background, noise histograms were processed with the ModFit LT software (Verity, Turramurra, Australia).

Assay [2] relates to ERK1/2. Nature of the assay: ERK1/2 (MAPK) phosphorylation by Western blot. The conditions noted are these: for expression of phosphorylated ERK1/2, pre-treatment before UTP: 10 µM pre-treatment, 100 µM UTP, one week of differentiation. The protocol:
(§1) To determine long-term proliferation, hmNPCs were plated and expanded for 2 passages with or without addition of various agents (see below) to the custom expansion media containing the growth factors EGF and FGF2. Different fetal midbrain tissues were included in this study. At the end of the proliferation period, differentiation of hmNPCs was induced via replacement of expansion media with mitogen-free media containing 1% FCS, 5 µM forskoline (Sigma-Aldrich Chemie GmbH Munich, Germany), and 100 pg/ml IL-1β (Sigma). The differentiation and expansion media were supplemented with different drugs as appropriate. Prior to immunocytochemistry or protein extraction, hmNPCs were allowed to differentiate for 1 week. To determine short-term proliferation via Ki67 immunostaining, the cells were seeded into 24-well plates (70,000 cells/well) and left overnight to rest. P2 receptor agonists (ATP, UTP, ATP + UTP, ADP, ADPβS) were supplied daily for 5 consecutive days. Ki67/nestin double-positive cells were counted in 8 randomly selected fields of nucleotide-treated or untreated samples. For the assessment of MAPK phosphorylation the cells were kept free of mitogens for 2 d prior to addition of the MEK-inhibitor in expansion media. In addition, the MEK-inhibitor was added during the differentiation period 15 min before UTP administration.
(§2) UTP, UDP, ATP, ADP, ADPβS and suramin were purchased from Sigma (Sigma-Aldrich Chemie GmbH Munich, Germany). UTP and UDP were applied at different concentrations (1 µM, 10 µM, 100 µM), ATP at 100 µM, ADP at 100 µM, and ADPβS at100 µM. During expansion of the cells, the nucleotides were renewed once a week with every media change, unless otherwise stated. They were applied once at the beginning of the differentiation period. The P2 receptor antagonist suramin (10 µM) was added to expansion media 30 min prior to addition of UTP (100 µM). The stock solution of the MEK1/2 inhibitor U0126 (Promega Corporation, Mannheim, Germany) was prepared in dimethyl sulfoxide (DMSO) at a concentration of 10 mM. The stock solution was then diluted in 0.1 M PBS to obtain a concentration of 1 mM. MEK inhibitor (final concentration 10 µM) was added to mitogen-free expansion media, 15 min before UTP treatment (1 µM) of hmNPCs.
In order to prepare protein extracts, hmNPCs were collected, washed with ice-cold PBS and lysed in buffer [10 mM HEPES-KOH (pH 7.9), 10 mM KCI, 1.5 mM MgCl2, 0.1% NP-40], supplemented with protease inhibitor cocktail (Roche). After a brief centrifugation at 4°C/10 000×g, protein concentrations and protein yield from extracts were determined using the Bradford method (Bio-Rad, Hercules, CA, USA). To preserve the phosphorylation state of proteins, extracts for the MAPK experiment were obtained using the PhosphoSafe™ extraction reagent containing phophatase inhibitors (Novagen). […] Membranes were blocked with 5% (wt/vol) nonfat dry milk in PBS-T (PBS, 0.1% (vol/vol) Tween 20) for 2 h at room temperature and subsequently incubated with the desired primary antibody (diluted in PBS containing 5% non-fat milk and 0.1% Tween 20) overnight at 4 °C with gentle agitation. The membrane was incubated with horseradish peroxidase-coupled secondary antibody for 1 h at room temperature. […] The chemiluminescence was quantified using the AIDA, two-dimensional densitometry software (Raytest lsotopenmeb, Straubenhardt, Germany).
On the technique in general: In western blotting, separated proteins are transferred to a membrane and probed.

Assay [3] deals with hmNPCs. The assay is described as follows: Dopaminergic differentiation: counting of TH-positive cells by immunocytochemistry. The procedure:
as §1, §2
Expanded or one week differentiated hmNPCs were fixed with 4% paraformaldehyde in PBS for 10 min at room temperature and washed with PBS, counterstained with the DNA-binding dye 4'-6-Diamidino-2-phenylindole (DAPI, 2 µg/ml in PBS) for 15 min at room temperature, washed twice in PBS followed by incubation in blocking buffer (10% FCS, 0.2% Triton-X 100 in PBS, pH 7.2) for 30 min at room temperature. After incubation with a primary antibody (over night at 4°C in blocking buffer), the cells were incubated with fluorescent secondary antibodies, Alexa Fluor® 488 conjugate or Alexa Fluor® 594 conjugate (Molecular Probes, Eugene, USA). Cover-slips were mounted onto glass slides and examined under a fluorescence microscope (Zeiss Axiovert 200). Acquisition of the cells was performed using the Image-analysis software AxioVision 4 (Carl Zeiss AG, Jena, Germany). The following primary antibodies were used for immunofluorescence: rabbit polyclonal anti-β-tubulin III (anti-Tuj1) antibody, rabbit polyclonal anti-tyrosine hydroxylase antibody , mouse monoclonal anti-nestin antibody (Pharmingen, San Diego, CA, USA), rabbit polyclonal anti-Ki67 antigen antibody (Novocastra Laboratories Ltd, Newcastle upon Tyne, UK). Estimation of the TH-positive cell numbers was performed by counting of cells among approximately 1000 differentiated cells in total within 6 randomly selected fields.

Assay [4] concerns hmNPCs. The assay is described as follows: Dopaminergic differentiation: TH protein expression by Western blot. The conditions noted are these: for expression of TH, pre-treatment before UTP: 10 µM pre-treatment, 100 µM UTP, one week of differentiation. The procedure: as §1, §2
In order to prepare protein extracts, hmNPCs were collected, washed with ice-cold PBS and lysed in buffer [10 mM HEPES-KOH (pH 7.9), 10 mM KCI, 1.5 mM MgCl2, 0.1% NP-40], supplemented with protease inhibitor cocktail (Roche). After a brief centrifugation at 4°C/10 000×g, protein concentrations and protein yield from extracts were determined using the Bradford method (Bio-Rad, Hercules, CA, USA). To preserve the phosphorylation state of proteins, extracts for the MAPK experiment were obtained using the PhosphoSafe™ extraction reagent containing phophatase inhibitors (Novagen). […] Membranes were blocked with 5% (wt/vol) nonfat dry milk in PBS-T (PBS, 0.1% (vol/vol) Tween 20) for 2 h at room temperature and subsequently incubated with the desired primary antibody (diluted in PBS containing 5% non-fat milk and 0.1% Tween 20) overnight at 4 °C with gentle agitation. The membrane was incubated with horseradish peroxidase-coupled secondary antibody for 1 h at room temperature. Chemiluminescence detection was performed by incubating the membranes with SuperSignal-Dura substrate (Pierce Biotechnology, Rockford, U.S.A) followed by analysis on a CCD cooling camera (Fuji LAS-1000plus). The chemiluminescence was quantified using the AIDA, two-dimensional densitometry software (Raytest lsotopenmeb, Straubenhardt, Germany).

The test system of assay [5] is hmNPCs. Nature of the assay: Short-term proliferation: Ki67/nestin immunostaining. Particulars: 100 µM; 5 subsequent days. The protocol:
as §1, with “hmNPCs” left out, “μM” for “µM”, “administration. […] Cover-slips were mounted onto glass slides and examined under a fluorescence microscope (Zeiss Axiovert 200). Acquisition of the cells was performed using the Image-analysis software AxioVision 4 (Carl Zeiss AG, Jena, Germany). The following primary antibodies were used for immunofluorescence: rabbit polyclonal anti-β-tubulin III (anti-Tuj1) antibody, rabbit polyclonal anti-tyrosine hydroxylase antibody , mouse monoclonal anti-nestin antibody (Pharmingen, San Diego, CA, USA), rabbit polyclonal anti-Ki67 antigen antibody (Novocastra Laboratories Ltd, Newcastle upon Tyne, UK). Estimation of the TH-positive cell numbers was performed by counting of cells among approximately 1000 differentiated cells in total within 6 randomly selected fields.” for “administration.”

The subject of assay [6] is hmNPCs. The assay is described as follows: Long-term proliferation: number of living cells (hemocytometer, trypan blue exclusion). The procedure:
as §1, §2
Cell counting of control (untreated) and treated hmNPCs was performed using a hemocytometer. Adherent cells were collected by detachment with accutase™ (PAA Laboratories, Pasching, Austria) for 10 min at 37°C. […] The number of total and trypan blue-positive cells was then determined by counting at least 300 cells per sample in a hemocytometer.

The mark [7] stands for this setting: 10 µM antagonist 30 min before 100 µM UTP.

With `Cc1ccc(C(=O)Nc2ccc(S(=O)(=O)O)c3cc(S(=O)(=O)O)cc(S(=O)(=O)O)c23)cc1NC(=O)c1cccc(NC(=O)Nc2cccc(C(=O)Nc3cc(C(=O)Nc4ccc(S(=O)(=O)O)c5cc(S(=O)(=O)O)cc(S(=O)(=O)O)c45)ccc3C)c2)c1` [suramin], in assay [1] (30 minutes pretreatment, 10 µM suramin or 100 µM PPADS), the “block of the anti-proliferative effects of ATP, ADP and ADPβS” value is given as “failed to block”. Moreover, the “expression of phosphorylated ERK1/2, pre-treatment before UTP” value in assay [2] is given as “remained at basal levels”. Besides, in assay [3] (setting [7]), the “number of TH-positive cells, antagonist before UTP” value is given as “reduced”. Besides, in assay [4] (setting [7]), the “TH protein content, antagonist before UTP” value was “decreased”. In assay [4], the “expression of TH, pre-treatment before UTP” value is reported as “remained at basal levels”.

As for `Nc1ncnc2c1ncn2[C@@H]1O[C@H](COP(=O)(O)OP(O)(O)=S)[C@@H](O)[C@H]1O` [ADPβS], in assay [1], the Sub-G1 came to 0.82%, the G0/G1 is on record as 84.21 ± 0.06%, the G2/M is reported as 3.61 ± 0.01% and the S stood at 12.17 ± 0.05%. Besides, in assay [5], the Ki67-positive cells entry was “strong reduction”.

On to `Nc1ncnc2c1ncn2[C@@H]1O[C@H](COP(=O)(O)OP(=O)(O)O)[C@@H](O)[C@H]1O` [ADP, adenosine diphosphate], for which, in assay [6] (100 µM each, 2 weeks in expansion media, on coapplication ADP 30 min before UTP, 20160 min), the “number of living cells” value was found to be 4 ± 0.5%. Besides, in assay [1], the Sub-G1 was found to be 0.54%, the G0/G1 worked out at 84.64 ± 0.41%, the G2/M was found to be 3.72 ± 0.20% and the S was 11.63 ± 0.2%. In addition, in assay [3] (Homo sapiens, 168 h, 100 µM each, once, only during the differentiation period of one week, read-out: number of TH-positive (dopaminergic) cells as compared to control), the activity at 100 µM is 11 ± 3%. Moreover, the Ki67-positive cells entry in assay [5] is reported as “strong reduction”.

As for `N#CC(=C(/N)Sc1ccccc1N)/C(C#N)=C(\N)Sc1ccccc1N` [U0126], in assay [6] (data not shown), the “proliferation of hmNPCs” value is given as “reduced”. Further, in assay [2] (10 µM inhibitor for 15 min before 1 µM UTP), the “UTP-induced phosphorylation of ERK1/2, inhibitor pretreatment” value is given as “abrogated”. In addition, the “expression of phosphorylated ERK1/2, pre-treatment before UTP” value in assay [2] was “remained at basal levels”. Moreover, the “expression of TH, pre-treatment before UTP” value in assay [4] is given as “remained at basal levels”.

As to `Nc1ncnc2c1ncn2[C@@H]1O[C@H](COP(=O)(O)OP(=O)(O)OP(=O)(O)O)[C@@H](O)[C@H]1O` [ATP, adenosine triphosphate], in assay [1], the Sub-G1 came out at 0.56%, the G0/G1 worked out at 91.69 ± 1.19%, the G2/M turned out to be 1.42 ± 0.11% and the S came to 6.89 ± 1.17%. The Ki67-positive cells result in assay [5] is “strong reduction”.

Turning to `O=c1ccn([C@@H]2O[C@H](COP(=O)(O)OP(=O)(O)O)[C@@H](O)[C@H]2O)c(=O)[nH]1` [UDP, uridine 5'-diphosphate], the TH protein levels entry in assay [4] (100 µM during the differentiation period) is recorded as “no increase”. Besides, the activity at 1 µM in assay [4] (Homo sapiens, 1 µM during the differentiation period, read-out: TH expression in immunoblots) is 194 ± 7%. In assay [4] (Homo sapiens, 10 µM during the differentiation period, read-out: TH expression in immunoblots), the activity at 10 µM is 180 ± 8%.
